Values of other authors as cited in US6365176B1, “Nutritional supplement for patients with type 2 diabetes mellitus for lipodystrophy” (Functional Foods, Inc., priority 2000, dated 2002).

Legend:
[1] = in vivo
[2] = doses between 200 and 1,000 μg daily

| Molecule | glycemic index (GI) [1] | fasting plasma glucose concentrations [2] |
| --- | --- | --- |
| O=C(CO)[C@@H](O)[C@H](O)[C@H](O)CO [Fructose] | 32 |  |
| chromium picolinate [Chromium as picolinate] |  | beneficial effect |
